Patent US10195198B2, “Methods and compositions for treating diseases and conditions” (Afferent Pharmaceuticals Inc., priority 2014, dated 2019)
Entries after “also recorded” stand apart in the source; their conditions may differ.

Assays:
carotid sinus nerve [1] = experiment: isolated carotid body/carotid sinus nerve preparation, wild-type mouse
From the text: FIGS. 1A-1D show the effects of Compound A, a benzyl-diaminopyrimidine P2X3 antagonist which is seen to reduce carotid sinus nerve activity and excitatory responses to hypoxia and ATP (or analogs), in an isolated preparation of carotid body/carotid sinus nerves. […] As shown, the dual P2X3 and P2X2/3 antagonist Compound A attenuates basal tonic firing and hypoxia-induced excitation of carotid sinus afferents in an isolated carotid body preparation of mouse. […] The IC50 is in the range between 10-30 μM.

carotid sinus nerve [2] = experiment: isolated carotid body/carotid sinus nerve preparation, P2X2 KO mouse (homotrimeric P2X3 mediated responses)
carotid sinus nerve [3] = experiment: isolated carotid body/carotid sinus nerve preparation, P2X3 KO mouse (homotrimeric P2X2 mediated responses)

SMILES | IC50 (carotid sinus nerve [1]; Mus musculus, wild type preparations, reversible, read-out: IC50 for inhibition of the response of sinus nerve to hypoxia) | basal tonic firing and hypoxia-induced excitation of carotid sinus afferents (carotid sinus nerve [1]; wild-type mouse isolated carotid body preparation) | basal tonic firing and hypoxia, α,β-MeATP induced excitation of carotid sinus afferents (carotid sinus nerve [2]; P2X2 KO mouse isolated carotid body preparation) | potency compared with wild type (carotid sinus nerve [2]; P2X2 KO mouse, lower concentrations effective) | basal tonic firing and hypoxia or ATP-induced excitation of carotid sinus afferents (carotid sinus nerve [3])
COc1cc(Cc2cnc(N)nc2N)c(C(C)C)cc1OC [Compound A] | 10 to 30 µM | attenuates; also recorded: attenuation | attenuates | Greater potency; also recorded: more sensitively observed | fails to attenuate; also recorded: no longer sensitive to inhibition
Cc1nc(N=Nc2ccc(S(=O)(=O)O)cc2S(=O)(=O)O)c(COP(=O)(O)O)c(C=O)c1O [PPADS] | – | – | – | – | inhibitory activity
